According to article PMC5890784, “Total chemical synthesis of glycocin F and analogues: S-glycosylation confers improved antimicrobial activity” (Chemical Science, 2018):
Bridges are numbered along the chain shown (N, C = ends). The star is where a group is joined. βGlcNAc = CC(=O)N[C@@H]1[C@@H](O)[C@H](O)[C@@H](CO)O[C@H]1*

Test system: Lactobacillus plantarum ATCC 8014
Type: cell-based
Conditions: for IC50: liquid culture in MRS broth, 96-well plate, triplicate, start OD 0.05, 30 °C, 12-15 h, absorbance 600 nm, error = maximum variance across triplicates
Experimental: To evaluate the antibacterial activity of synthetic glycocin F (1b), [^27D-His]-GccF (1a) and glyco-mutants 10 and 11, the IC50 values against Lactobacillus plantarum ATCC 8014 were measured using a liquid culture assay. Synthetic GccF (1b) was used as the positive control (Table 1).
The glycopeptides were assayed for activity against Lactobacillus plantarum strain 8014, using a 96-well plate reader. Serial dilutions of the compound to be tested were prepared in MRS broth (Merck) and was added, in triplicate, to a 96-well plate containing an equal volume of L. plantarum 8014 at optical density 0.05. Additional positive controls (cells with no treatment) and negative controls (MRS media with no cells) were included, also in triplicate. Cells were grown in a Multiskan GO plate reader (Thermo Scientific) for 12-15 h, at 30 °C, and absorbance measured at 600 nm every 15 min. The growth of cells in each peptide concentration was modelled against the internal positive control, and the percentage inhibition derived at each time point as the difference between the optical density of the positive control and the optical density of cells within a given peptide concentration. Taking the maximum point from plots of percentage inhibition versus time for each peptide concentration allowed a polynom ial fit to be applied, and the concentration required to reach 50% inhibition derived.
Statistical error was taken as the maximum variance across the triplicates of each concentration in a […]
Figure 44. Th e results from testin g the bacterially-isola ted GccF, synthetic GccF (1b) and analo gues 1a, 10, and 11, plott ed as perc entage in hibit ion of Lact oba cillus plantarum ATCC 8014 gro wth vs concentra tion of the […]
(1 picture or pasted object on this page, not shown here)

[1] = from IC50 values, relative to IC50 1.13 nM

| Substance | IC50 | further results |
| --- | --- | --- |
| H-KPAWCWYTLAMCGAGYDS(βGlcNAc)GTCDYMYSHCFGIKHHSSGSSSYHS(βGlcNAc)-OH (disulfide 5-28, 12-21) [Compound 10] | – | decrease in activity compared to native glycocin F (fold) [1]: approximately 10 fold |
| H-KPAWCWYTLAMCGAGYDS(βGlcNAc)GTCDYMYSHCFGIKHHSSGSSSYHC(βGlcNAc)-OH (disulfide 5-28, 12-21) [Compound 1b, glycocin F] | 1.13 ± 0.2 nM | – |
| H-KPAWCWYTLAMCGAGYDS(βGlcNAc)GTCDYMYSHCFGIKHHSSGSSSYHC(βGlcNAc)-OH (disulfide 5-28, 12-21) [Native, glycocin F] | 2 ± 0.2 nM | – |
| H-KPAWCWYTLAMCGAGYDC(βGlcNAc)GTCDYMYSHCFGIKHHSSGSSSYHC(βGlcNAc)-OH (disulfide 5-28, 12-21) [Compound 11] | – | increase in activity relative to the native glycopeptide (fold) [1]: approximately 2 fold |
